Here are results for six molecules from patent publication US10028960B2, “Pyrimidine compounds as JAK kinase inhibitors” (THERAVANCE BIOPHARMA R&D IP, LLC, priority 2016, dated 2018).

The target in one data set is JAK2 (Homo sapiens (Human), UniProt O60674). Description: LanthaScreen JAK biochemical assay, JAK2. The method, then:
(§1) A panel of four LanthaScreen JAK biochemical assays (JAK1, 2, 3 and Tyk2) were carried in a common kinase reaction buffer (50 mM HEPES, pH 7.5, 0.01% Brij-35, 10 mM MgCl2, and 1 mM EGTA). Recombinant GST-tagged JAK enzymes and a GFP-tagged STAT1 peptide substrate were obtained from Life Technologies.

Data set [1] concerns oxazolone-induced colitis. Description: Mouse model of oxazolone-induced colitis. The format is in vivo, BALB/C mice. The settings on record: mouse, PO, 1, 3, and/or 10 mg/kg BID. The method, then: Oxazolone-induced colitis is an experimental model that has a histological resemblance to human ulcerative colitis (Heller et al. […], 2002, 17, 629-638). Adult BALB/C mice from Harlan were used in the assay. On day 1, animals were lightly anesthetized with isoflurane and the hairs between the shoulder were carefully removed before oxazolone (4%, 150 μL, 4:1 acetone: olive oil formulation) or vehicle solution was slowly applied for skin sensitization. Seven days after skin sensitization, the mice were fasted overnight, anesthetized with isoflurane inhalation, and a 1 mL syringe equipped with a 3.5-F catheter, filled with oxazolone solution, was inserted carefully about 4 cm into the colon of the mouse. Following insertion, 50 μL of the oxazolone solution (1%, 1:1 ethanol:water formulation) was injected very slowly (over 30 sec using an injection pump) into the colon. The catheter was removed and the mice were held vertically (head down) for 2 min to ensure that the entire oxazolone solution remained inside the colon. Drug treatment (PO, BID or TID) or vehicle was initiated a day prior to the oxazolone intrarectal (IR) challenge. Two-day post oxazolone intrarectal challenge, the Disease Activity Index (DAI) was assessed by treatment-blinded experimenters for each mouse according to the criteria score: stool consistency score (0, normal; 2, loose; 4, diarrhea), gross bleeding score (0, absence; 2, blood tinged; 4, presence), and weight loss score (0, none; 1, 1%-5%; 2, 5%-10%; 3, 10%-20%; 4, more than 20%); DAI=average of (stool consistency score+gross bleeding score+weight loss score).
Selected compounds of the invention were tested in the assay. Efficacy in the model is evidenced by a decrease in DAI score as compared with the score from vehicle treated animals.

The target of a further data set is Tyk2 (Homo sapiens (Human), UniProt P29597). Description: LanthaScreen JAK biochemical assay, Tyk2. The settings on record: read-out: Tyk 2 (pKi) (converted). The method, then: as §1
Tyk2, sequence (P29597 whole entry): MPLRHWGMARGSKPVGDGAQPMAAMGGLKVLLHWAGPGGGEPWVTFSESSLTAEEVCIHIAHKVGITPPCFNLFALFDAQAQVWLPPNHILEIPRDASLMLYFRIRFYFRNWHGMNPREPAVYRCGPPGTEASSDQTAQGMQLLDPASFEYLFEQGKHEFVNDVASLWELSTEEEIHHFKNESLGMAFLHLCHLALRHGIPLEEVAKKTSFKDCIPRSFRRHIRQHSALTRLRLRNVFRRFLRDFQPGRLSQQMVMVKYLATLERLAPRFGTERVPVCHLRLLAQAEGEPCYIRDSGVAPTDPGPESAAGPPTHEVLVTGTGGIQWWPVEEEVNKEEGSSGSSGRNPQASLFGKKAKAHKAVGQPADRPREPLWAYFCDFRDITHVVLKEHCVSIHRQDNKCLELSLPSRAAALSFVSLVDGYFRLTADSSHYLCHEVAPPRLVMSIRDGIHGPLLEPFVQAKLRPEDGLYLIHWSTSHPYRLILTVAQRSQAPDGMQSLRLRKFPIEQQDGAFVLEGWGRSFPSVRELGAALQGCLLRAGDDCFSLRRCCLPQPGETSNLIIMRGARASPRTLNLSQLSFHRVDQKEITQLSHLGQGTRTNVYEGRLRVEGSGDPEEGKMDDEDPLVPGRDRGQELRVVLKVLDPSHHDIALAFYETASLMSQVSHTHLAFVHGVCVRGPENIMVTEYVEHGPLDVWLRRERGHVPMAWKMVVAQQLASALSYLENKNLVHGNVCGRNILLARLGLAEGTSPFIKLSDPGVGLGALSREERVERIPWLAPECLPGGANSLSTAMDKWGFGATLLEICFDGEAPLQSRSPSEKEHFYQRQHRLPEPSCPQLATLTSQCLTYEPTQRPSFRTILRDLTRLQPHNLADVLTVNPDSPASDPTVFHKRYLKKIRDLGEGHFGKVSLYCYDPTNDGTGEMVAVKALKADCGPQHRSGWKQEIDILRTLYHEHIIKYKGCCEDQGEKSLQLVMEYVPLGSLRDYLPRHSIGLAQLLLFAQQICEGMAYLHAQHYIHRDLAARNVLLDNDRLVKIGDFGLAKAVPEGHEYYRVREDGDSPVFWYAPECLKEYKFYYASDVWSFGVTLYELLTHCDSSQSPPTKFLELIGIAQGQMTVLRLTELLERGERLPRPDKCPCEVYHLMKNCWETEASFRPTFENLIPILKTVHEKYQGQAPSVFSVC
For another data set, the target named is JAK3 (Homo sapiens (Human), UniProt P52333). Description: LanthaScreen JAK biochemical assay, JAK3. The method, then:
as §1

Data set [2] in a line: Determination of absorption in cannulated rats. Format: in vivo, Sprague Dawley rats. The settings on record: rat; for bioavailability: Sprague Dawley, plasma (jugular vein), oral vs IV, read-out: oral bioavailability (F %); for absorption at the portal vein (Fa %): oral. The method, then:
Oral bioavailability (F %), fraction absorbed (Fa %) and fraction escaping hepatic clearance (Fh %) were determined in Sprague Dawley rats from the following two studies:
(1) Pharmacokinetics in rats following an IV dose of test compound: Following IV dosing, plasma samples were typically collected from 0-6 hr. Drug levels were determined using an LC-MS-MS method. The resulting drug levels were used to compute the IV pharmacokinetic parameters: AUC IV and Dose IV.
(2) Rats that have been cannulated in their portal vein (PV) and also in their jugular vein (JV) were dosed orally with test compound. Following oral dosing, plasma samples were typically collected from 0-6 hr from both the portal vein and the jugular vein. Drug levels were determined using an LC-MS-MS method. The resulting drug levels were used to compute the following pharmacokinetic parameters: AUC PO PV, AUC PO JV, and Dose PO.
Using data derived from the above studies, the oral bioavailability F %, and the quantities Fa % and Fh % were calculated from the following formulas: F %=(AUC PO JV/AUC IV)*(Dose IV/Dose PO)*100 Fa %=(AUC PO PV/AUC IV)*(Dose IV/Dose PO)*100 Fh %=AUC PO JV/AUC PO PV
AUC PO JV=Area under the curve following oral dose and plasma collected from the jugular vein
AUC PO PV=Area under the curve following oral dose and plasma collected from the portal vein
AUC IV=Area under the curve following an intravenous dose
Dose IV=Intravenous Dose in mg/kg
Dose PO=Oral Dose in mg/kg

Data set [3] deals with IL-13 induced STAT6 phosphorylation in HT-29 human colorectal adenocarcinoma cells. Description: Cellular JAK potency assay: inhibition of IL-13 induced STAT6 phosphorylation. The format is cell-based. Conditions: Homo sapiens; IL-13 induced STAT6 phosphorylation, HT-29 cells; read-out: HT-29 (pIC50) (converted).
In another data set the target is JAK1 (Homo sapiens (Human), UniProt P23458). Description: LanthaScreen JAK biochemical assay, JAK1. Conditions: for Ki: read-out: JAK 1 (pKi) (converted). The method, then: as §1
JAK1, sequence (P23458 whole entry): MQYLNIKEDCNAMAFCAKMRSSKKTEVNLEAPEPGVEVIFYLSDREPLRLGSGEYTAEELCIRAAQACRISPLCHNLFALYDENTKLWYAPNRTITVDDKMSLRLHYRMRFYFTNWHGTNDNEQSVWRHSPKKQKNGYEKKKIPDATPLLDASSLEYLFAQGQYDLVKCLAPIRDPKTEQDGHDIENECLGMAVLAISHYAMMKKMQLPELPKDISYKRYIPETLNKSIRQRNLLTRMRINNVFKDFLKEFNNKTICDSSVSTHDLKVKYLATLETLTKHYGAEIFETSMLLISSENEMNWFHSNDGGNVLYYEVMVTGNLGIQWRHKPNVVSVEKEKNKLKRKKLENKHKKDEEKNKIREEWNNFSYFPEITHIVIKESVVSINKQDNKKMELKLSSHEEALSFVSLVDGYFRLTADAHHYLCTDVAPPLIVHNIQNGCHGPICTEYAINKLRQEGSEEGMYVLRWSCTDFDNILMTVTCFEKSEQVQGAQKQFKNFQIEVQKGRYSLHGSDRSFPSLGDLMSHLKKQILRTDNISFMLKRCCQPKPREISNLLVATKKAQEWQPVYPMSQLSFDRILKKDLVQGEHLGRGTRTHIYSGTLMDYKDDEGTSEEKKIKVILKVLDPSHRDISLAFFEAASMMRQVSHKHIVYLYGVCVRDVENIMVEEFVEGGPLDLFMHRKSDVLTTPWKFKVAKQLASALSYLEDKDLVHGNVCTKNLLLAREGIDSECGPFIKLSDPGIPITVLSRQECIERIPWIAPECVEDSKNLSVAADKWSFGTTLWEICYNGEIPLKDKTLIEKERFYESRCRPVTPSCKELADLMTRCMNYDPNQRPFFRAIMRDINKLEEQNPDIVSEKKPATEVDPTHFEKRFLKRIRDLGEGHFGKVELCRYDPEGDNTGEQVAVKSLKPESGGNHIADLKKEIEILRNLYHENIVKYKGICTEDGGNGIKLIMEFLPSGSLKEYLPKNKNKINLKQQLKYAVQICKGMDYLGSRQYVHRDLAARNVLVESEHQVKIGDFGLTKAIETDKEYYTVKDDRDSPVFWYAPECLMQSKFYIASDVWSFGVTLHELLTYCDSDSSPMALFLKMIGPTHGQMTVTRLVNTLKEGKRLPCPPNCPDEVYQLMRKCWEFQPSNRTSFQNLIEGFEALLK
A short description of data set [4]: Dynamic moisture sorption assessment. Format: physicochemical. The settings on record: for weight gain: humidity range of 5% to 90% relative humidity, 25° C. The method, then: Dynamic moisture sorption (DMS) measurement was performed using a VTI atmospheric microbalance, SGA-100 system (VTI Corp., Hialeah, Fla. 33016). A weighed sample was used and the humidity was lowest possible value (close to 0% RH) at the start of the analysis. The DMS analysis consisted of an initial drying step (0% RH) for 120 minutes, followed by two cycles of sorption and desorption with a scan rate of 5% RH/step over the humidity range of 5% RH to 90% RH. The DMS run was performed isothermally at 25° C.

The subject of data set [5] is mouse splenic NK, B and T cells. The settings on record: in vivo, po. The method, then: Depletion of mouse splenic cells is an experimental model of immunosuppression (Kudlacz et al., Am. J. of Transplantation, 2004, 4, 51-57). The compound of Example 2 was assessed in the mouse splenic cell model following the same treatment paradigm as that used in the oxazolone-induced colitis model (Assay 8).
The compound (1, 10 and 100 mg/kg, BID) and tofacitinib (30 and 60 mg/kg, BID) as a positive control were dosed orally for three days to naïve mice. Spleens were harvested 1 h post last dose and crushed immediately for cell subtype staining. Prior to fixation, fluorophore-labelled antibodies for CD19 (FITC; B cells), CD3e (PE; pan T cells) and DX5 (APC; NK cells) were incubated with splenocyte samples from each animal to allow for simultaneous, multiple subtype % analysis on the flow cytometer. The number of total spleen cells for each animal was measured by Scepter™ 2.0 Handheld Automated Cell Counter.
The absolute number of lymphocyte subtype population (e.g., splenic B, T and NK cells) was calculated from the percentage of each subtype times total spleen cells for each animal. A one way ANOVA, with Dunnett's post hoc test, was used to compare the splenic lymphocytes number of the vehicle and test compound groups. The a level was set at p<0.05. Data were presented as the mean±SEM for each group.

The mark [6] stands for this setting: read-out: JAK 3 (pKi) (converted).

The term bioavailability denotes the share of a dose that reaches the circulation, judged against a reference dose that is usually intravenous.

The structures appear in SMILES notation. Read-outs that look alike come from different tables or passages of the source.

JAK3, sequence (P52333 whole entry): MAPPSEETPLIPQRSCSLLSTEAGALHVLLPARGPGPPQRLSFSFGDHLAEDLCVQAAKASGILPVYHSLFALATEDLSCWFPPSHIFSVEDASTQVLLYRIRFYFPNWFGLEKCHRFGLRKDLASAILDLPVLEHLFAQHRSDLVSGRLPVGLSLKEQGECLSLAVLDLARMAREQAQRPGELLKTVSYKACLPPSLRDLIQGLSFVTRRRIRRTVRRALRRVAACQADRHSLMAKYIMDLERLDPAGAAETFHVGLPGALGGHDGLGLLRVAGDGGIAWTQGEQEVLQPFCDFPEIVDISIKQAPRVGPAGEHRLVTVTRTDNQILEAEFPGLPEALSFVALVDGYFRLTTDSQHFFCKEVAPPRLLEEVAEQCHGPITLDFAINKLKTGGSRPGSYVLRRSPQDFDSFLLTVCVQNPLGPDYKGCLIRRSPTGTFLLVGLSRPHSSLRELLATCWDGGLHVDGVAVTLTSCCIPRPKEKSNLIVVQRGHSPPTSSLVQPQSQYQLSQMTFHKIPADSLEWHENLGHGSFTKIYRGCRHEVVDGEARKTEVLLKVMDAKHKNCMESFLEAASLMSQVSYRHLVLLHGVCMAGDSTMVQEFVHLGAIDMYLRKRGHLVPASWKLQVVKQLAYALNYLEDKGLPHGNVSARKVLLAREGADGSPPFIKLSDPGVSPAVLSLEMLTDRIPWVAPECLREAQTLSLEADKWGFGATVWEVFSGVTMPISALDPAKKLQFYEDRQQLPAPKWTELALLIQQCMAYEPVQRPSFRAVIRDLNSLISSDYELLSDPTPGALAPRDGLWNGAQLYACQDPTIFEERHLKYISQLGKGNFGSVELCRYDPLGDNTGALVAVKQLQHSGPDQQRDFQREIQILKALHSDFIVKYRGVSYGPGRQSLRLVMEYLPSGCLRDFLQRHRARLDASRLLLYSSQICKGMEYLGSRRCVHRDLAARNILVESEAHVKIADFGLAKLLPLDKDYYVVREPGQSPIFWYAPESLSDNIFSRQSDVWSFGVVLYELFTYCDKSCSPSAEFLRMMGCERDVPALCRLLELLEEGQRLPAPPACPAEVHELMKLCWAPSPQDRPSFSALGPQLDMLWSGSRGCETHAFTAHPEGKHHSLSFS
JAK2, sequence (O60674 whole entry): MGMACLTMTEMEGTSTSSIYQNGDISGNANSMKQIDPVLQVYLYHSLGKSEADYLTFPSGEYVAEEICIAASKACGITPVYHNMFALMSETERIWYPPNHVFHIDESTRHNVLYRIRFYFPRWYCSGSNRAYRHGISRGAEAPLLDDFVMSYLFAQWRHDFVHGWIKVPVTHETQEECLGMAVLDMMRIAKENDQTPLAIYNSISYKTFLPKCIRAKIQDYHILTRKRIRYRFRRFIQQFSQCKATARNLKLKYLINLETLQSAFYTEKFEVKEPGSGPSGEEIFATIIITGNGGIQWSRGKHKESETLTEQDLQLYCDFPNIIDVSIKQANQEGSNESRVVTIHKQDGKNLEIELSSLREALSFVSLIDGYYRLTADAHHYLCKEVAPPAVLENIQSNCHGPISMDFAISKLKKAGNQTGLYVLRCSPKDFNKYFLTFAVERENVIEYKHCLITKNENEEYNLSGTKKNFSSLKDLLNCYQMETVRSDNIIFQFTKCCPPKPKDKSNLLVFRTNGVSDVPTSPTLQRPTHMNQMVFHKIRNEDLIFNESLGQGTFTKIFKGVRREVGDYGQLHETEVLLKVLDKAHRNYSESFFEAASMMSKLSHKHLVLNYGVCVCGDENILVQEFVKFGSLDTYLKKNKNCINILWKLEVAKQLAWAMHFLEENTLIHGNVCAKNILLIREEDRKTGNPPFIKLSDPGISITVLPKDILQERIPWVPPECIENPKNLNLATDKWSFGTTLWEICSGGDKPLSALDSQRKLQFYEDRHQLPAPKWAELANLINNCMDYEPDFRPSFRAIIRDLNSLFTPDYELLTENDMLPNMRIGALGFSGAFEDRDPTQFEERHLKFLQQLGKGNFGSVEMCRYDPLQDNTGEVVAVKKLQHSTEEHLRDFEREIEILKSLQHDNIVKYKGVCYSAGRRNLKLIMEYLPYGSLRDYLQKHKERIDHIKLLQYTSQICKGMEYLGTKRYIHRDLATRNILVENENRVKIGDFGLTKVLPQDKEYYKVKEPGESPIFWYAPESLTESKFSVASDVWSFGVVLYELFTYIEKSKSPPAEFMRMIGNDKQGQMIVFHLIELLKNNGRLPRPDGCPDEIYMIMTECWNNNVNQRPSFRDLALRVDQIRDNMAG

As to `COc1cc(Nc2cc(CO)[nH]n2)nc(N(C)[C@@H]2C[C@H]3CC[C@@H](C2)N3S(=O)(=O)N2CC(C#N)C2)n1` [Example 1, 1-(((1R,3s,5S)-3-((4-((5-(Hydroxymethyl)-1H-pyrazol-3-yl)amino)-6-methoxypyrimidin-2-yl)(methyl)amino)-8-azabicyclo[3.2.1]octan-8-yl)sulfonyl)azetidine-3-carbonitrile], at JAK2, the “JAK 2 (pKi)” value is “A (A represents a pKi value≥10 (Ki≤0.1 nM))”. In [1], the “decrease in DAI score as compared with vehicle treated animals” value is “did not exhibit a statistically significant decrease”. The Ki on Tyk2 is 0.1 to 1 nM; on JAK3, 1 to 10 nM. For the same molecule, in data set [2], the bioavailability was under 5%. For the same molecule, the “absorption at the portal vein (Fa %)” value in data set [2] is reported as “less than 25%”. In addition, the IC50 in [3] is 31.6 to 200 nM. Further, at JAK1, the “JAK 1 (pKi)” value is on record as “A (A represents a pKi value≥10 (Ki≤0.1 nM))”.

In the case of `COc1cc(Nc2cc(CO)[nH]n2)nc(N(C)[C@@H]2C[C@H]3CCC[C@@H](C2)N3S(=O)(=O)N2CC(C#N)C2)n1` [Form I, 1-(((1R,3s,5S)-3-((4-((5-(hydroxymethyl)-1H-pyrazol-3-yl)amino)-6-methoxypyrimidin-2-yl)(methyl)amino)-9-azabicyclo[3.3.1]nonan-9-yl)sulfonyl)azetidine-3-carbonitrile], the weight gain entry in data set [4] is reported as “less than 0.4%”.

Take `COc1cc(Nc2cc(CO)[nH]n2)nc(N(C)[C@@H]2C[C@H]3CCC[C@@H](C2)N3S(C)(=O)=O)n1` [Example 3, (3-((6-methoxy-2-(methyl((1R,3s,5S)-9-(methylsulfonyl)-9-azabicyclo[3.3.1]nonan-3-yl)amino)pyrimidin-4-yl)amino)-1H-pyrazol-5-yl)methanol]: the “JAK 2 (pKi)” value at JAK2 was “A (A represents a pKi value≥10 (Ki≤0.1 nM))”. Besides, the Ki at Tyk2 is 0.1 to 1 nM; at JAK3 (setting [6]) it was 1 to 10 nM; at JAK1 it was 0.1 to 1 nM. The “absorption at the portal vein (Fa %)” value in [2] was “greater than 40%”. For the same molecule, in data set [3], the IC50 is 31.6 to 200 nM.

In the case of `C[C@@H]1CCN(C(=O)CC#N)C[C@@H]1N(C)c1ncnc2[nH]ccc12` [tofacitinib, reference compound], the “treatment effect on B and T cell populations” value in data set [5] was “No treatment effect”.

As to `COc1cc(Nc2cc(CO)[nH]n2)nc(N(C)[C@@H]2C[C@H]3CCC[C@@H](C2)N3S(=O)(=O)N2CC(C#N)C2)n1` [Form II, 1-(((1R,3s,5S)-3-((4-((5-(hydroxymethyl)-1H-pyrazol-3-yl)amino)-6-methoxypyrimidin-2-yl)(methyl)amino)-9-azabicyclo[3.3.1]nonan-9-yl)sulfonyl)azetidine-3-carbonitrile], the hygroscopicity entry in data set [4] (5% to 90% relative humidity) is reported as “slightly hygroscopic”. Moreover, in data set [4], the weight gain entry is listed as “about 1.2%”.

With `COCCS(=O)(=O)N1[C@@H]2CCC[C@H]1C[C@H](N(C)c1nc(Nc3cc(CO)[nH]n3)cc(OC)n1)C2` [Example 4, (3-((6-methoxy-2-(((1R,3s,5S)-9-((2-methoxyethyl)sulfonyl)-9-azabicyclo[3.3.1]nonan-3-yl)(methyl)amino)pyrimidin-4-yl)amino)-1H-pyrazol-5-yl)methanol], the “JAK 2 (pKi)” value at JAK2 is “A (A represents a pKi value≥10 (Ki≤0.1 nM))”. In addition, in data set [1], the “decrease in DAI score as compared with vehicle treated animals” value is recorded as “statistically significant decrease”. Also, the Ki at Tyk2 is 0.1 to 1 nM; at JAK3 (setting [6]), 1 to 10 nM; at JAK1 it was 0.1 to 1 nM. Further, the bioavailability in [2] is under 5%. Also, in data set [2], the “absorption at the portal vein (Fa %)” value was “greater than 40%”. In addition, the IC50 in [3] is 31.6 to 200 nM.
